This test concerns the target Recombinant Human Enteropeptidase (Homo sapiens (Human), UniProt P98073). The experiment in a line: Enteropeptidase Inhibition Assay. It is filed as biochemical. To be noted: substrate Acetyl-Asp-Asp-Asp-Asp-Lys-AFC 30 μM, 30° C., 1 hour; Ki calculated from IC50 using Cheng-Prusoff equation. On the procedure:
Enteropeptidase Inhibition Assay
The inhibitory activity of the enteropeptidase inhibitor synthesized using the purified Recombinant Human Enteropeptidase and the substrate Acetyl-Asp-Asp-Asp-Asp-Lys-AFC (BioVision) was measured. 7.2 ng/mL of Enteropeptidase diluted with a buffer (20 mM Tris, 50 mM NaCl, pH 7.5) in a 96 well plate (Costar), 30 μM of Acetyl-Asp-Asp-Asp-Asp-Lys-AFC, several concentrations of Enteropeptidase inhibitors (1% DMSO concentration) were dispensed such that a final volume was 100 μL, and then the enzyme reaction was carried out at 30° C. for 1 hour. At this time, 1% DMSO, a substrate and Enteropeptidase instead of the compound were dispensed onto positive control wells, and 1% DMSO and a substrate were dispensed onto negative control wells. The enzyme reaction was […] using an excitation wavelength of 380 nm and an emission wavelength of 500 nm in a fluorescence spectrometer, and then the rate of increase in fluorescence (milli-units per min) between 20 and 60 minutes was measured.
The fluorescence measurement values reduced by the inhibitor diluted at each concentration were converted into relative values % of the positive control group (100% reactivity) and the negative control group (0% reactivity), and used to calculate IC50 values. IC50 is the concentration of the inhibitor that inhibits the enzyme activity by 50%, and was calculated using PRISM (GraphPad). Ki values were calculated from the IC50 values using Cheng-Prusoff equation.

Sequence of Recombinant Human Enteropeptidase (P98073 whole entry): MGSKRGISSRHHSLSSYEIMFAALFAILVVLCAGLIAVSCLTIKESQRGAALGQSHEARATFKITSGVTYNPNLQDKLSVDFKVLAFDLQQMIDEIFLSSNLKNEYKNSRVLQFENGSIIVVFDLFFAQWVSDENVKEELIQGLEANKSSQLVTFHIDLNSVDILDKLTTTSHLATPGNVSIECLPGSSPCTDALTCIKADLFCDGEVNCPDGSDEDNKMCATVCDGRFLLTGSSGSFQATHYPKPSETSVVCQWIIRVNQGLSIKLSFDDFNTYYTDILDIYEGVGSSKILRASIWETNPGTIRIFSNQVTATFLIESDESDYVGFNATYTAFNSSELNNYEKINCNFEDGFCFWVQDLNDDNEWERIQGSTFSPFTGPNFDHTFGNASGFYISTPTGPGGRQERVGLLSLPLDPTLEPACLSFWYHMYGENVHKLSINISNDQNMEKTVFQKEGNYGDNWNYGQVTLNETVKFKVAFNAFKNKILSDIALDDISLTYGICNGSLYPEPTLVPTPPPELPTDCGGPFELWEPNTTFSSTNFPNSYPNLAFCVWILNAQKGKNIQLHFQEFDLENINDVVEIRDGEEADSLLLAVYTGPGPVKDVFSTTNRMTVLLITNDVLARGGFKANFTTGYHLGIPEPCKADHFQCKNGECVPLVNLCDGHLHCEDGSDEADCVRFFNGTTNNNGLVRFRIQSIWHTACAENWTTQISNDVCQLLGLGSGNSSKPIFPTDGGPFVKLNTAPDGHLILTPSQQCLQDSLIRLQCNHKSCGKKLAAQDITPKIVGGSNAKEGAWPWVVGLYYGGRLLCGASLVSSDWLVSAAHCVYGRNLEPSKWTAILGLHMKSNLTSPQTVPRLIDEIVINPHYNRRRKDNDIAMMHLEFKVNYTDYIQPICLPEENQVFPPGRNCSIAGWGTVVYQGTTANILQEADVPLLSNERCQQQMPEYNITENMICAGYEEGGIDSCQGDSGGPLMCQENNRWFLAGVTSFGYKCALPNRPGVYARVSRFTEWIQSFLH

With `CCN(CCC(=O)Nc1ccc(C(=O)O)cc1)c1ncc(C(=O)Oc2ccc(C(=N)N)cc2F)s1` [Example 55, 4-(3-((5-((4-Carbamimidoyl-2-fluorophenoxy)carbonyl)thiazol-2-yl)(ethyl)amino)propanamido)benzoic Acid], the inhibitory constant (Ki) was 8.2 nM. As to `N=C(N)c1ccc(OC(=O)c2ccc3nc(N4CCC(C(=O)Nc5ccccc5)CC4)sc3c2)cc1` [Example 80, 4-Carbamimidoylphenyl 2-(4-(phenylcarbamoyl)piperidin-1-yl)benzo[d]thiazole-6-carboxylate], the Ki is 23 nM. For `CN(CCCC(=O)O)c1nc2ccc(C(=O)Oc3ccc(C(=N)N)cc3)cc2s1` [Example 64, 4-((6-((4-Carbamimidoylphenoxy)carbonyl)benzo[d]thiazol-2-yl)(methyl)amino)butanoic Acid] the value was 6.4 nM. For `N=C(N)c1ccc(OC(=O)c2cnc(N3CCC(C(=O)O)C3)s2)cc1` (stereo not shown) [Example 17, 1-(5-((4-Carbamimidoylphenoxy)carbonyl)thiazol-2-yl)pyrrolidine-3-carboxylic Acid] the value was 5.4 nM; for `CCN(CC(C)(C)C(=O)O)c1nc2ccc(C(=O)Oc3ccc(C(=N)N)cc3)cc2s1` [Example 74, 3-((6-((4-Carbamimidoylphenoxy)carbonyl)benzo[d]thiazol-2-yl)(ethyl) Amino)-2,2-dimethylpropanoic Acid], 8.9 nM; for `COC(=O)CCN(C)c1nc2ccc(C(=O)Oc3ccc(C(=N)N)cc3)cc2s1` [Example 60, 4-Carbamimidoylphenyl 2-((3-methoxy-3-oxopropyl)(methyl)amino)benzo[d]thiazole-6-carboxylate], 10 nM. For `N=C(N)c1ccc(OC(=O)c2cnc(N3CCC(C(=O)O)CC3)s2)c(F)c1` [Example 7, 1-(5-((4-Carbamimidoyl-2-fluorophenoxy)carbonyl)thiazol-2-yl)piperidine-4-carboxylic Acid], the Ki was 0.6 nM. With `CN(CCCC(=O)O)c1nc2ccc(C(=O)Oc3ccc(C(=N)N)cc3F)cc2s1` [Example 76, 4-((6-((4-Carbamimidoyl-2-fluorophenoxy)carbonyl)benzo[d]thiazol-2-yl)(methyl)amino)butanoic Acid], the Ki was 0.57 nM. For `CCN(CC(C)(C)C(=O)OC)c1nc2ccc(C(=O)Oc3ccc(C(=N)N)cc3F)cc2s1` [Example 70, 4-Carbamimidoyl-2-fluorophenyl 2-(ethyl(3-methoxy-2,2-dimethyl-3-oxopropyl)amino)benzo[d]thiazole-6-carboxylate], the Ki was 3.5 nM. As for `CCn1/c(=N/CC(C)(C)C(=O)O)sc2cc(C(=O)Oc3ccc(C(=N)N)cc3F)ccc21` [Example 88, (Z)-3-((6-((4-Carbamimidoyl-2-fluorophenoxy)carbonyl)-3-ethylbenzo[d]thiazole-2(3H)-ylidine)amino)-2,2-dimethylpropanoic Acid], the Ki is 0.16 nM. Next, `CN(CC(C)(C)C(=O)O)c1ncc(C(=O)Oc2ccc(C(=N)N)cc2)s1` [Example 19]: 4.8 nM; `CCN(CCC(=O)O)c1ncc(C(=O)Oc2ccc(C(=N)N)cc2)s1` [Example 14]: 5.1 nM. For `COC(=O)C1CCN(c2ncc(C(=O)Oc3ccc(C(=N)N)cc3)s2)CC1` [Example 3, 4-Carbamimidoylphenyl 2-(4-(methoxycarbonyl)piperidin-1-yl)thiazole-5-carboxylate] the value was 17 nM; for `CCN(CCC(=O)OC)c1nc2ccc(C(=O)Oc3ccc(C(=N)N)cc3F)cc2s1` [Example 84, 4-Carbamimidoyl-2-fluorophenyl 2-(ethyl(3-methoxy-3-oxopropyl)amino)benzo[d]thiazole-6-carboxylate], 2.2 nM; for `COC(=O)CCCN(C)c1nc2ccc(C(=O)Oc3ccc(C(=N)N)cc3)cc2s1` [Example 63, 4-Carbamimidoylphenyl 2-((4-methoxy-4-oxobutyl)(methyl)amino)benzo[d]thiazole-6-carboxylate], 13 nM. For `COC(=O)C(C)(C)CNc1nc2ccc(C(=O)Oc3ccc(C(=N)N)cc3)cc2s1` [Example 67, 4-Carbamimidoylphenyl 2-((3-methoxy-2,2-dimethyl-3-oxopropyl)amino)benzo[d]thiazole-6-carboxylate] the value was 19 nM; for `COC(=O)CCCN(C)c1ncc(C(=O)Oc2ccc(C(=N)N)cc2)s1` [Example 11, 4-Carbamimidoylphenyl 2-((4-methoxy-4-oxobutyl)(methyl)amino)thiazole-5-carboxylate], 21 nM; for `CN(CCC(=O)O)c1nc2ccc(C(=O)Oc3ccc(C(=N)N)cc3F)cc2s1` [Example 77, 3-((6-((4-Carbamimidoyl-2-fluorophenoxy)carbonyl)benzo[d]thiazol-2-yl)(methyl) Amino)propanoic Acid], 0.57 nM. Turning to `CCN(CC(C)(C)C(=O)O)c1nc2ccc(C(=O)Oc3ccc(C(=N)N)cc3F)cc2s1` [Example 75, 3-((6-((4-Carbamimidoyl-2-fluorophenoxy)carbonyl)benzo[d]thiazol-2-yl)(ethyl)amino)-2,2-dimethyl Propanoic Acid], the Ki is 0.7 nM. Consider `COC(=O)C1CCN(c2nc3ccc(C(=O)Oc4ccc(C(=N)N)cc4)cc3s2)CC1` [Example 57, 4-Carbamimidoylphenyl 2-(4-(methoxycarbonyl)piperidin-1-yl)benzo[d]thiazole-6-carboxylate], for which the Ki is 13 nM.

For `COC(=O)C(C)(C)CNc1ncc(C(=O)Oc2ccc(C(=N)N)cc2)s1` [Example 24, 4-Carbamimidoylphenyl 2-((3-methoxy-2,2-dimethyl-3-oxopropyl)amino)thiazole-5-carboxylate], the Ki was 8.9 nM. On to `COC(=O)CCNC(=O)C1CCN(c2ncc(C(=O)Oc3ccc(C(=N)N)cc3F)s2)CC1` [Example 38, 4-Carbamimidoyl-2-fluorophenyl 2-(4-((3-methoxy-3-oxopropyl)carbamoyl)piperidin-1-yl)thiazole-5-carboxylate], for which the Ki is 2.6 nM. Consider `N=C(N)c1ccc(OC(=O)c2cnc(NCCC(=O)O)s2)cc1` [Example 13], for which the Ki is 4.8 nM. In the case of `N=C(N)c1ccc(OC(=O)c2cnc(N3CCC(C(=O)NCC(=O)O)CC3)s2)c(F)c1` [Example 42, (1-(5-((4-Carbamimidoyl-2-fluorophenoxy)carbonyl)thiazol-2-yl)piperidine-4-carbonyl)glycine], the Ki is 1 nM.

As to `CCN(CCC(=O)Nc1ccc(C(=O)OC)cc1)c1ncc(C(=O)Oc2ccc(C(=N)N)cc2F)s1` [Example 50, 4-Carbamimidoyl-2-fluorophenyl 2-(ethyl(3-((4-(methoxycarbonyl)phenyl)amino)-3-oxopropyl)amino)thiazole-5-carboxylate], the Ki was 14 nM.

With `COC(=O)CCN(C)c1nc2ccc(C(=O)Oc3ccc(C(=N)N)cc3F)cc2s1` [Example 72, 4-Carbamimidoyl-2-fluorophenyl 2-((3-methoxy-3-oxopropyl)(methyl)amino)benzo[d]thiazole-6-carboxylate], the Ki is 1.3 nM. Next, `COC(=O)C1CCN(c2ncc(C(=O)Oc3ccc(C(=N)N)cc3F)s2)CC1` [Example 4, 4-Carbamimidoyl-2-fluorophenyl 2-(4-(methoxycarbonyl)piperidin-1-yl)thiazole-5-carboxylate]: 0.92 nM. Consider `COC(=O)C(C)(C)CN(C)c1nc2ccc(C(=O)Oc3ccc(C(=N)N)cc3)cc2s1` [Example 68, 4-Carbamimidoylphenyl 2-((3-methoxy-2,2-dimethyl-3-oxopropyl)(methyl)amino)benzo[d]thiazole-6-carboxylate], for which the Ki was 6 nM. Turning to `CCN(CCC(=O)Nc1cccc(C(=O)O)c1)c1ncc(C(=O)Oc2ccc(C(=N)N)cc2F)s1` [Example 54, 3-(3-((5-((4-Carbamimidoyl-2-fluorophenoxy)carbonyl)thiazol-2-yl)(ethyl)amino)propanamido)benzoic Acid], the Ki was 2.5 nM. Next, `N=C(N)c1ccc(OC(=O)c2cnc(N3CCC(C(=O)Nc4ccccc4)CC3)s2)cc1` [Example 27, 4-Carbamimidoylphenyl 2-(4-(phenylcarbamoyl)piperidin-1-yl)thiazole-5-carboxylate]: 12 nM; `CN(CCCC(=O)O)C(=O)C1CCN(c2ncc(C(=O)Oc3ccc(C(=N)N)cc3)s2)CC1` [Example 35]: 9.7 nM; `CCn1/c(=N/CC(C)(C)C(=O)OC)sc2cc(C(=O)Oc3ccc(C(=N)N)cc3F)ccc21` [Example 87, 4-Carbamimidoyl-2-fluorophenyl (Z)-3-ethyl-2-((3-methoxy-2,2-dimethyl-3-oxopropyl)imino)-2,3-dihydrobenzo[d]thiazole-6-carboxylate]: 4 nM.

Consider `CC(C)(CNc1nc2ccc(C(=O)Oc3ccc(C(=N)N)cc3)cc2s1)C(=O)O` [Example 73, 3-((6-((4-Carbamimidoylphenoxy)carbonyl)benzo[d]thiazol-2-yl)amino)-2,2-dimethylpropanoic Acid], for which the Ki is 0.89 nM. Regarding `CCN(CCC(=O)O)c1nc2ccc(C(=O)Oc3ccc(C(=N)N)cc3F)cc2s1` [Example 85, 3-((6-((4-Carbamimidoyl-2-fluorophenoxy)carbonyl)benzo[d]thiazol-2-yl)(ethyl)amino)propanoic Acid], the Ki was 0.55 nM.

For orientation: Ki means a dissociation constant, usually derived from enzyme kinetics or from competition with a known ligand.

The record behind these values is patent publication US11447480B2, “Compound exhibiting enteropeptidase inhibitory activity” (LG CHEM, LTD., priority 2018, dated 2022).
